Key:
[1] = system: lung cells (NKT cells) from Air and COPD mice; experiment: Cytokine production by total lung cells stimulated with alpha-GalactosylCeramide (ELISA); format: cell-based, C57B1/6 mice; settings: αGC 100 ng/ml, 48 hrs; for production of IL-22: after Sp challenge vs non infected, ELISA of supernatants
Protocol: FIG. 3—Lung cells from Air and COPD mice were treated with αGC (100 ng/ml) or not (Ctl, non stimulated) for 48 hrs. The concentrations of IL-22, IL-17, IFN-γ and IL-4 were analyzed by ELISA in the supernatants. Values represented the mean±SEM.
C57B1/6 mice were exposed to CS generated from 5 cigarettes per day, 5 days a week, over a period of 12 weeks using a smoking machine (Emka, Scireq, Canada).
Mice were inoculated with a clinical isolate of S. pneumoniae serotype 1 (Sp) (5×10^4 cfu). Bacteria stocks were kept frozen at −80° C. Bacteria were thawn just before infection, and the number of cfu was checked on chocolate plates. Infection was performed by intranasal route (50 μl/mouse).
Cytokine production was analyzed in total lung cells. For this, 5×10^5 lung cells were seeded on 96-well plates and then stimulated with alpha-GalactosylCeramide, or α-GC (100 ng/ml), and coated anti-CD3 Ab. Forty-eight hours later, supernatants were collected and analyzed for IFN-γ, IL-4, IL-17 and IL-22 concentration by ELISA (R&D Systems).

[2] = system: peripheral blood mononuclear cells (PBMC); experiment: Th17 cytokine secretion by peripheral blood mononuclear cells exposed to S. pneumoniae or PHA; format: cell-based, human; settings: PHA 1 μg/ml, supernatants after 24 h
Protocol: Peripheral blood and induced or spontaneous sputum were collected in stable COPD patients (n=10), in smokers (without COPD, n=13)) and in non smoker healthy controls (n=14) (CPP 2008-A00690-55) in order to evaluate ex vivo the Th17 response to infection with S. pneumoniae. Peripheral blood mononuclear cells (PBMC) were purified on Ficoll Paque gradient and 3×10^6 cells/ml in complete RPMI1640 were exposed to S. pneumoniae (MOI=2) or to a positive control, phytohemagglutinin (1 μg/ml) (PHA, Difco). After 90 min, antibiotics were added to stop bacteria growth and supernatants were collected after 24 h incubation. In parallel, another batch of cells was incubated with brefeldin-A (10 μg/ml, Sigma) for 4 h before collection and was used for intracellular immuno-staining of cytokines in lymphocytes.

[3] = pulmonary cells from Air and COPD mice, after Sp infection, ELISA

| Compound | IL-17 production ([1]; pulmonary cells from Air and COPD mice, after Sp challenge, ELISA) | levels of IFN-y [1, 3] | levels of IL-4 [1, 3] | production of IL-22 ([1]; pulmonary cells from Air mice) | production of IL-22 ([1]; pulmonary cells from COPD mice) | response (secretion, mainly IL-17 and IL-22) ([2]; PBMC of COPD patients) | levels of IL-17 and IL-22 ([2]; PBMC of non-smokers and smokers) |
| --- | --- | --- | --- | --- | --- | --- | --- |
| CCCCCCCCCCCCCCCCCCCCCCCCCC(=O)N[C@@H](CO[C@H]1O[C@H](CO)[C@H](O)[C@H](O)[C@H]1O)[C@H](O)[C@H](O)CCCCCCCCCCCCCC [alpha-GalactosylCeramide] | failed to increase IL-17 production | higher levels | higher levels | higher production of IL-22 | absent | – | – |
| phytohemagglutinin [PHA] | – | – | – | – | – | partially altered | significantly increased |
